Converted amounts (≈) assume the structure as drawn. Read-outs that look alike come from different tables or passages of the source.
Columns and labels:
[1] = Blood level in rats after intramuscular administration (Experimental Example 1, Table 3); format: in vivo; conditions: rat, im, 20 mg/kg i.m., serum, read-out: Blood level after administration (average value ± standard deviation); for concentration at 0.25 h: 15 minutes; for concentration at 0.5 h: 30 minutes; for concentration at 1 h: 60 minutes; for concentration at 2 h: 120 minutes
Method: The compounds of this invention prepared in Synthesis Examples 1 and 2 were each administered intramuscularly to rats, and the concentrations of the compounds in the blood were determined.
Each of the test compounds was intramuscularly injected into the femoral part of rats in a customary manner in a dose of 20 mg/kg for each rat. The blood was drawn by incising the cervical artery and vein at the end of 15 minutes, 30 minutes, 60 minutes, 120 minutes, and 240 minutes after the injection. The separated sera were used for the measurement of the blood level of the test compounds. The concentrations of the test compounds in the sera were determined by a thin-layer cup method using Micrococcus luteus ATCC 9341 as an assay microorganism.

[2] = system: Pseudomonas aeruginosa (NCTC 7244); experiment: Minimum bactericidal concentration (Referential Example 2, Table 2); format: cell-based; conditions: NCTC7244, 18 h, subculture on HIA medium
Method: The compounds obtained in Synthesis Examples 1 to 4 were tested in the following manner.
A suspension of Pseudomonas aeruginosa (NCTC 7244) cultivated at 37° C. for 18 hours in a heart infusion broth medium (HIB medium) in a final amount of 10^5, 10^6 and 10^7 cells/ml in an HIB medium containing each of the test compounds which was obtained in the same way as in Referential Example 1 except that the maximum concentration of the test compound was 200 μg/ml. The bacterial strain was cultivated at 37° C. for 18 hours, and the turbidity of the culture broth was evaluated with the naked eye. The minimum concentration of the test compound at which no turbidity was noted was defined as MIC.
The growth of the bacterial strain was evaluated.

[3] = system: Pseudomonas aeruginosa (IFO-3901); experiment: MIC, agar plate dilution (Referential Example 1, Table 1); format: cell-based; conditions: IFO3901, HIA medium plate, 37° C., 18 hours, read-out: Minimum growth inhibitory concentration (MIC)
Method: (§1) The antibacterial activities of the cephalosporins of this invention were measured using the sodium salts of the compounds obtained in Synthesis Examples 1 and 2. The procedure and the results are shown in Referential Example 1.
(§2) Carbenicillin sodium salt (CB-PC) and cephazoline sodum salt (CEZ) were used as controls.
(§3) The antibacterial activities of the test compounds against various Gram-positive and Gram-negative bacteria were determined in a customary manner by the minimum growth inhibitory concentration method (MIC method).
(§4) The experimental procedure was as follows:
(§5) A commercially available heart infusion agar medium (to be abbreviated HIA medium) was used as an assay medium, and a commercially available trypto-soy bouillon medium (to be abbreviated TSB) was used as a medium for the growth of test bacterial strains.
(§6) The test compound was diluted with the melted HIA medium to 100 μg/ml as a maximum concentration, and then serially diluted double. The dilutions were poured into sterilized Petri dishes respectively and allowed to cool and solidify to prepare plates containing the test compound.
(§7) The test bacterial strain was cultivated at 37° C. for 18 to 24 hours in the TSB medium. The culture broth was diluted to 50 to 500 times with a freshly prepared TSB culture medium, and one platinum loopful of the dilution was inoculated in each of the plates containing the test compound.

Proteus vulgaris (OX-19) = experiment: as above; format: cell-based; conditions: 18 h, read-out: Minimum growth inhibitory concentration (MIC)
Method: as §1, §2, §3, §4, §5, §6, §7

[4] = system: Pseudomonas aeruginosa (ATCC 10145); experiment: as above; format: cell-based; conditions: ATCC10145, HIA medium plate, 37° C., 18 hours, read-out: Minimum growth inhibitory concentration (MIC)
Method: as §1, §2, §3, §4, §5, §6, §7

[5] = system: Pseudomonas aeruginosa (718); experiment: as above; format: cell-based; conditions: HIA medium plate, 37° C., 18 hours, read-out: Minimum growth inhibitory concentration (MIC)
Method: as §1, §2, §3, §4, §5, §6, §7

[6] = system: Pseudomonas aeruginosa (S-1); experiment: as above; format: cell-based; conditions: HIA medium plate, 37° C., 18 hours, read-out: Minimum growth inhibitory concentration (MIC)
Method: as §1, §2, §3, §4, §5, §6, §7

[7] = system: Enterobacter aerogenes (IFO 3320); experiment: as above; format: cell-based; conditions: Klebsiella aerogenes, IFO3320, 18 h, read-out: Minimum growth inhibitory concentration (MIC)
Method: as §1, §2, §3, §4, §5, §6, §7

[8] = system: Pseudomonas aeruginosa (NCTC 7244); experiment: as above; format: cell-based; conditions: NCTC7244, HIA medium plate, 37° C., 18 hours, read-out: Minimum growth inhibitory concentration (MIC)
Method: as §1, §2, §3, §4, §5, §6, §7

Escherichia coli (26RO3) = experiment: as above; format: cell-based; conditions: HIA medium plate, 37° C., 18 hours, read-out: Minimum growth inhibitory concentration (MIC)
Method: as §1, §2, §3, §4, §5, §6, §7

[9] = system: Klebsiella pneumonia (F-5089); experiment: as above; format: cell-based; conditions: Klebsiella pneumoniae; HIA medium plate, 37° C., 18 hours; read-out: Minimum growth inhibitory concentration (MIC)
Method: as §1, §2, §3, §4, §5, §6, §7

Proteus rettgeri (T-2) = experiment: as above; format: cell-based; conditions: Providencia rettgeri; HIA medium plate, 37° C., 18 hours; read-out: Minimum growth inhibitory concentration (MIC)
Method: as §1, §2, §3, §4, §5, §6, §7

[10] = system: Staphylococcus aureus (FDA 209P); experiment: as above; format: cell-based; conditions: FDA209P, 18 h, read-out: Minimum growth inhibitory concentration (MIC)
Method: as §1, §2, §3, §4, §5, §6, §7

[11] = system: Staphylococcus aureus (Y-8); experiment: as above; format: cell-based; conditions: HIA medium plate, 37° C., 18 hours, read-out: Minimum growth inhibitory concentration (MIC)
Method: as §1, §2, §3, §4, §5, §6, §7

[12] = system: Klebsiella pneumoniae (ATCC 10031); experiment: as above; format: cell-based; conditions: ATCC10031, 18 h, read-out: Minimum growth inhibitory concentration (MIC)
Method: as §1, §2, §3, §4, §5, §6, §7

Escherichia coli (K-12) = experiment: as above; format: cell-based; conditions: 18 h, read-out: Minimum growth inhibitory concentration (MIC)
Method: as §1, §2, §3, §4, §5, §6, §7

[13] = system: Pseudomonas aeruginosa (395); experiment: as above; format: cell-based; conditions: read-out: Minimum growth inhibitory concentration (MIC)
Method: as §1, §2, §3, §4, §5, §6, §7

Shigella flexneri (K-A) = experiment: as above; format: cell-based; conditions: HIA medium plate, 37° C., 18 hours, read-out: Minimum growth inhibitory concentration (MIC)
Method: as §1, §2, §3, §4, §5, §6, §7

[14] = system: Pseudomonas maltophilia (F-6257); experiment: as above; format: cell-based; conditions: Stenotrophomonas maltophilia; HIA medium plate, 37° C., 18 hours; read-out: Minimum growth inhibitory concentration (MIC)
Method: as §1, §2, §3, §4, §5, §6, §7

[15] = system: Salmonella enteritidis (KB-21); experiment: as above; format: cell-based; conditions: Salmonella enterica, HIA medium plate, 37° C., 18 hours, read-out: Minimum growth inhibitory concentration (MIC)
Method: as §1, §2, §3, §4, §5, §6, §7

[16] = system: Klebsiella pneumoniae (Horino); experiment: as above; format: cell-based; conditions: HIA medium plate, 37° C., 18 hours, read-out: Minimum growth inhibitory concentration (MIC)
Method: as §1, §2, §3, §4, §5, §6, §7

[17] = system: Pseudomonas aeruginosa (F1629); experiment: as above; format: cell-based; conditions: HIA medium plate, 37° C., 18 hours, read-out: Minimum growth inhibitory concentration (MIC)
Method: as §1, §2, §3, §4, §5, §6, §7

[18] = system: Streptococcus faecalis (Hoshi); experiment: as above; format: cell-based; conditions: Enterococcus faecalis; HIA medium plate, 37° C., 18 hours; read-out: Minimum growth inhibitory concentration (MIC)
Method: as §1, §2, §3, §4, §5, §6, §7

Structure (SMILES)	concentration at 0.25 h [1] [ng/mL]	concentration at 0.5 h [1] [ng/mL]	concentration at 1 h [1] [ng/mL]	concentration at 2 h [1] [ng/mL]	MBC ([2]; 10^5 cells/ml inoculated) [µg/mL]	MBC ([2]; 10^6 cells/ml inoculated) [µg/mL]	MBC ([2]; 10^7 cells/ml inoculated) [µg/mL]	MIC [3] [µg/mL]	MIC (Proteus vulgaris (OX-19)) [µg/mL]	MIC [4] [µg/mL]	MIC [5] [µg/mL]	MIC [6] [µg/mL]	MIC [7] [µg/mL]	MIC [8] [µg/mL]	MIC (Escherichia coli (26RO3)) [µg/mL]	MIC [9] [µg/mL]	MIC (Proteus rettgeri (T-2)) [µg/mL]	MIC [10] [µg/mL]	MIC [11] [µg/mL]	MIC [12] [µg/mL]	also measured
Cc1nnc(SCC2=C(C(=O)O)N3C(=O)C(NC(=O)[C@H](NC(=O)c4cnc5c(c4O)C(=O)CCC5)c4ccc(O)cc4)C3SC2)s1 (single isomer, unassigned) [Synthesis Example 2]	22800 ± 2600	16100 ± 3000	7600 ± 1800	2500 ± 1200	12.5 (≈ 18.3 µM)	12.5 (≈ 18.3 µM)	> 200	6.25 (≈ 9.15 µM)	0.78 (≈ 1.14 µM)	12.5 (≈ 18.3 µM)	12.5 (≈ 18.3 µM)	1.56 (≈ 2.28 µM)	0.39 (≈ 0.571 µM)	12.5 (≈ 18.3 µM)	1.56 (≈ 2.28 µM)	1.56 (≈ 2.28 µM)	1.56 (≈ 2.28 µM)	0.78 (≈ 1.14 µM)	3.13 (≈ 4.58 µM)	0.78 (≈ 1.14 µM)	MIC (Escherichia coli (K-12)): 0.39 µg/mL (≈ 0.571 µM); MIC ([13]; HIA medium plate, 37° C., 18 hours): 3.13 µg/mL (≈ 4.58 µM); MIC (Shigella flexneri (K-A)): 0.2 µg/mL (≈ 0.293 µM); MIC [14]: 3.13 µg/mL (≈ 4.58 µM); MIC [15]: 0.2 µg/mL (≈ 0.293 µM); MIC [16]: 1.56 µg/mL (≈ 2.28 µM); MIC [17]: 6.25 µg/mL (≈ 9.15 µM); MIC [18]: 12.5 µg/mL (≈ 18.3 µM)
CC(=O)OCC1=C(C(=O)O)N2C(=O)C(NC(=O)[C@H](NC(=O)c3cnc4c(c3O)C(=O)CCC4)c3ccc(O)cc3)C2SC1 (single isomer, unassigned) [Synthesis Example 1, 7-[D-(-)-α-(4-hydroxy-5-oxo-5,6,7,8-tetrahydroquinoline-3-carboxamide)-α-(4-hydroxyphenyl)acetamido]-3-acetoxymethyl-Δ^3-cephem-4-carboxylic acid]	14000 ± 2200	9800 ± 3100	6800 ± 2200	2200 ± 1000	12.5 (≈ 20.5 µM)	25 (≈ 40.9 µM)	> 200	12.5 (≈ 20.5 µM)	1.56 (≈ 2.55 µM)	12.5 (≈ 20.5 µM)	12.5 (≈ 20.5 µM)	3.13 (≈ 5.13 µM)	0.39 (≈ 0.639 µM)	12.5 (≈ 20.5 µM)	3.13 (≈ 5.13 µM)	3.13 (≈ 5.13 µM)	3.13 (≈ 5.13 µM)	1.56 (≈ 2.55 µM)	3.13 (≈ 5.13 µM)	1.56 (≈ 2.55 µM)	MIC (Escherichia coli (K-12)): 1.56 µg/mL (≈ 2.55 µM); MIC ([13]; 18 h): 1.56 µg/mL (≈ 2.55 µM); MIC (Shigella flexneri (K-A)): 0.39 µg/mL (≈ 0.639 µM); MIC [14]: 0.25 µg/mL (≈ 0.409 µM); MIC [15]: 0.78 µg/mL (≈ 1.28 µM); MIC [16]: 3.13 µg/mL (≈ 5.13 µM); MIC [17]: 12.5 µg/mL (≈ 20.5 µM); MIC [18]: 25 µg/mL (≈ 40.9 µM)
